Reference: publication PMC8835475, “Salviolone from Salvia miltiorrhiza Roots Impairs Cell Cycle Progression, Colony Formation, and Metalloproteinase-2 Activity in A375 Melanoma Cells: Involvement of P21(Cip1/Waf1) Expression and STAT3 Phosphorylation” (International Journal of Molecular Sciences, 2022)

What was measured:
Type in all cases: cell-based, human
MeWo melanoma cell line = experiment: SRB cell viability assay in MeWo cells; conditions: SRB, 72 h; for EC50: Homo sapiens, read-out: EC50 useful in diminishing cell viability; for effect on cell viability: at least until 40 µM
Description: (§1) In preliminary experiments, the evaluation of cell viability at different time after compound administration was carried out with sulforhodamine B (SRB) assay. Indeed, after 24-, 48-, and 72-h treatment, an evident time dependence in the inhibition of cell growth was registered (data not shown). Thus, to evaluate A375 and MeWo cell viability, we decided to perform further SRB experiments with each compound only after 72 h.
(§2) Human MeWo (HTB-65) and A375 (CRL-1619) melanoma cell lines as well as the normal human epidermal melanocyte (NHEM) (PCS-200-013) cell line (ATCC, Manassas, VA, USA) were cultured at 37 °C under 5% CO2 in a humidified atmosphere. Roswell Park Memorial Institute 1640 medium (RPMI, Gibco, Ref.21875, Thermo Scientific, Waltham, MA, USA) was used to culture MeWo cells, while Dulbecco’s Modified Eagle Medium (DMEM, Gibco, Ref. 61965, Thermo Scientific, Waltham, MA, USA) was used for A375 and NHEM cell lines. The culture media were supplemented with 10% fetal bovine serum (FBS, Gibco, Thermo Scientific, Waltham, MA, USA) plus 1% Antibiotic Antimycotic Solution (Gibco, Thermo Scientific). The MEK1 inhibitor U0126 (CAY-70970) and the PI3K inhibitor LY294002 (CAY-70920) were provided by Cayman Chemical, Ann Arbor, MI, USA.
(§3) Melanoma MeWo and A375 cells or NHEM were seeded in 96-well plates (5.0 × 10^3 cells/well for MeWo cells and 2.9 × 10^3 cells/well for A375 or NHEM). After 24-h culture, the cells were treated with different concentrations of compounds 1–7. After 72-h treatment, the cells were fixed by adding 25 µL/well of 50% (w/v) TCA directly into the culture medium. The plates were incubated at 4 °C for 1 h, washed four times with ddH2O, and dried at RT. Staining was performed by adding 50 µL/well of 0.04% (w/v) sulforhodamine B (SRB) sodium salt solution (Sigma-Aldrich, Milan, Italy). After 1-h incubation at RT, the plates were rinsed with 1% HAc and air-dried. SRB was solubilized in a 10 mM Tris-base solution pH 10.5 and Abs492 measured in the plate reader TECAN NanoQuant Infinite M200 Pro (Tecan Group Ltd., Männedorf, Switzerland). Six replicates for each condition/data point were performed.

A375 melanoma cell line = experiment: SRB cell viability assay in A375 cells; conditions: for EC50: Homo sapiens, A-375, read-out: half maximal effective concentration (EC50) able to reduce cell viability; for EC50 / effect on cell viability / A375 cell viability, inhibitor administered alone: A375, SRB, 72 h; for effect on cell viability: at least until 40 µM; for potentiation of the decrease of A375 cell viability induced by 20 µM salviolone or cryptotanshinone: 10 µM inhibitor added 2 h before the diterpene; for A375 cell viability, inhibitor administered alone: concentration-dependent
Description: as §1, §2, §3

pERK1/2 = experiment: Immunoblot of pERK1/2 in A375 cells; conditions: 10 µM U0126 with compound 4 or 7 at 20 µM
Description: (§4) A375 cells were seeded in 6 cm Petri dishes (190 300 cell/dish) and treated with different compounds at 10 or 20 μM. After 48- or 72-h treatment, the cells were scraped using warm 1× sample buffer (2% SDS, 10% glycerol, 50 mM Tris-HCl, 1.75% β-mercaptoethanol, and bromophenol blue) and boiled at 99 °C for 10 min. Total protein extracts were kept at −80 °C until use.
(§5) Protein extracts were analyzed with a 7.5 or 10% polyacrylamide SDS-PAGE and transferred to a polyvinylidene difluoride membrane (PVDF, Thermo Fisher Scientific, Waltham, MA, USA). The membranes were blocked at RT for 1 h with TBST buffer (10 mM Tris-HCl pH 7.5, 100 mM NaCl, 0.1% Tween20) containing 4% Milk (Formulat). Then, they were incubated on a shaker, overnight (ON) at 4 °C, with 5% BSA solution containing primary antibodies against p-Tyr705-STAT3 (#9145, 1:1000), pRb (#8516, 1:2000), pERK (#4370, 1:1000), pAkt (#4060, 1:2000), pSer15-P53 (#9286, 1:2000) (Cell Signaling Technology, Danvers, […], USA), Akt (GTX121937, 1:3000), ERK (GTX134452, 1:6000), Cyclin A2 (GTX-103042, 1:3000), p-Thr160Cdk2 (GTX-133862, 1:3000), p21 (GTX-629543, 1:3000) (Genetex, Alton Pkwj Irvine, CA, USA), p53 (Sc-263, 1:1000), STAT3 (Sc-482, 1:1000), and p-Ser727-STAT3 (Sc-136193, 1:1000) (Santa Cruz Biotechnology, Dallas, TX, USA). The membranes were washed three times with TBST buffer for 30 min and then incubated for 1 h with a horseradish-peroxidase-conjugated secondary antibody (anti-rabbit 1:6000, Genetex), (anti-mouse, 1:4000, Cell Signaling Technology, Danvers, […], USA). They were washed another three times for 30 min with TBST buffer. All protein extracts were normalized with a β-actin protein antibody (GTX-124214, 1:10,000; Genetex, Alton Pkwj Irvine, CA, USA). Immuno-detection was carried out with an ECL kit (GE-Healthcare, Little Chalfont, UK), and the chemiluminescence signals were detected with ChemiDoc (Bio-Rad, Hercules, CA, USA).

pAkt = experiment: Immunoblot of pAkt in A375 cells; conditions: 10 µM LY294002 with compound 7 or 4 at 20 µM
Description: as §4, §5

SMILES: Cc1coc2c1C(=O)C(=O)c1c-2ccc2c1CCCC2(C)C [Compound 1, tanshinone IIA]
- EC50 (MeWo melanoma cell line): 2 µM
- EC50 (A375 melanoma cell line): ~1 µM

SMILES: Cc1coc2c1C(=O)C(=O)c1c-2ccc2c1[C@@H](O)CCC2(C)C [Compound 2, 1α-hydroxytanshinone]
- effect on cell viability (MeWo melanoma cell line): ineffective
- effect on cell viability (A375 melanoma cell line): ineffective

SMILES: Cc1coc2c1C(=O)C(=O)c1c-2ccc2c1C(=O)CCC2(C)C [Compound 3, 1-oxotanshinone]
- effect on cell viability (MeWo melanoma cell line): ineffective
- effect on cell viability (A375 melanoma cell line): ineffective

SMILES: C[C@H]1COC2=C1C(=O)C(=O)c1c2ccc2c1[C@H](O)CCC2(C)C [Compound 5, 1β-hydroxycryptotanshinone]
- EC50 (MeWo melanoma cell line): 45 µM
- activity rating for inhibition of melanoma cell viability (A375 melanoma cell line; A375 and MeWo, SRB): poorly active
- EC50 (A375 melanoma cell line): ~42 µM

SMILES: CC1COc2c1c(=O)oc(=O)c1c3c(ccc21)C(C)(C)CCC3O (stereo not drawn) [Compound 6, 1α-hydroxyanhydride-16R-cryptotanshinone]
- effect on cell viability (MeWo melanoma cell line): ineffective
- effect on cell viability (A375 melanoma cell line): ineffective

SMILES: N#CC(=C(/N)Sc1ccccc1N)/C(C#N)=C(/N)Sc1ccccc1N [Compound U0126, reference compound]
- pERK1/2 expression level on co-administration (pERK1/2): strongly inhibited
- potentiation of the decrease of A375 cell viability induced by 20 µM salviolone or cryptotanshinone (A375 melanoma cell line): did not potentiate
- A375 cell viability, inhibitor administered alone (A375 melanoma cell line): inhibited

SMILES: O=c1cc(N2CCOCC2)oc2c(-c3ccccc3)cccc12 [LY294002, reference compound]
- potentiation of the decrease of A375 cell viability induced by 20 µM salviolone or cryptotanshinone (A375 melanoma cell line): did not potentiate
- A375 cell viability, inhibitor administered alone (A375 melanoma cell line): inhibited
- pAkt expression level on co-administration (pAkt): inhibition
